Data on 1 compound can be found in publication PMC5923142, “Selection and Characterization of Rupintrivir-Resistant Norwalk Virus Replicon Cells In Vitro” (Antimicrobial Agents and Chemotherapy, 2018).

For one assay, the system named is GII mutant proteases. The assay can be described thus: Cell-based FRET assay, GII mutant proteases (A105V, I109V, A105V/I109V). The arrangement: species or system norovirus GII.4 (DQ658413). Particulars: A105V/I109V vs GII WT, HEK293T cells. The source says:
(§1) The generation of plasmids expressing norovirus protease from GI.1 (M87661), GII.4 (DQ658413), or GV (DQ285629) norovirus and FRET assay constructs has been described previously ([18]). The plasmids carrying GI, GII, and GV proteases with the A105V, I109V, or A105V/I109V mutation were generated from the wild-type (WT) protease constructs described above by the QuikChange site-directed mutagenesis method. Mutant MNV genomes for reverse genetics were generated by two-step PCR mutagenesis of the WT MNV genome (pT7 MNV 3RZ) construct as described previously ([27]). The primers used for generation of the plasmids are listed in Tables S1 and S2 in the supplemental material.
(§2) The YFP/CFP ratio was used to determine FRET efficiency, as described previously ([18], [40]). Briefly, HEK293T cells were plated into black 96-well cell culture microplates (Greiner Bio-One) at a density of 5 × 10^4 cells/well in 100 μl of DMEM containing 10% fetal bovine serum with or without various concentrations of rupintrivir and then incubated for 4 h in a CO2 incubator at 37°C. […] The plates were then analyzed on a SpectraMax i3 instrument in fluorescence mode, with excitation set at 434 nm and the reading emissions set at 477 nm (CFP) and 527 nm (YFP). The background fluorescence from wells transfected with pcDNA3.1 was determined and subtracted. […]

Another assay addresses T1, GV WT protease (Norovirus, UniProt Q80J95).
T1 construct: plasmids expressing norovirus protease from GI.1 (M87661), GII.4 (DQ658413), or GV (DQ285629) norovirus; expressed in transfected cells; host or cells: HEK293T
T1 sequence (Q80J95 995-1177 limits assumed): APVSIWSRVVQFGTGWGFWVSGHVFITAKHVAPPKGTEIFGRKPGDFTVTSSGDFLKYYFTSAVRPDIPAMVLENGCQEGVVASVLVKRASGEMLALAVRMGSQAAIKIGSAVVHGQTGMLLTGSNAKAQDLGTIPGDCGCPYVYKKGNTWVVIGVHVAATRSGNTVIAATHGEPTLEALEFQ
Put plainly: Cell-based FRET assay, GV WT protease. The arrangement: species or system murine norovirus (MNV) GV (DQ285629). To be noted: HEK293T cells, GV NS1/2-NS3 FRET substrate.
From the text: as §1, §2

In assay [1] the target is T2, GI A105V/I109V mutant protease (Norovirus, UniProt Q83883, A1205V/I1209V).
T2 construct: plasmids expressing norovirus protease from GI.1 (M87661); expressed in transfected cells; host or cells: HEK293T
Put plainly: Cell-based FRET assay, GI A105V/I109V protease. The arrangement: species or system norovirus GI.1 (M87661).
From the text: as §1, §2

A further assay concerns the target T3, GI WT protease (Norovirus, UniProt Q83883).
T3 construct: plasmids expressing norovirus protease from GI.1 (M87661); expressed in transfected cells; host or cells: HEK293T
The assay can be described thus: Cell-based FRET assay, GI WT protease. The arrangement: species or system norovirus GI.1 (M87661). Particulars: HEK293T cells, GI NS1/2-NS3 FRET substrate; read-out: 50% inhibitory concentration (IC50).
From the text: as §1, §2

“Also recorded” adds a separate entry of the source.

T2 sequence (Q83883 1101-1281 A1205V/I1209V): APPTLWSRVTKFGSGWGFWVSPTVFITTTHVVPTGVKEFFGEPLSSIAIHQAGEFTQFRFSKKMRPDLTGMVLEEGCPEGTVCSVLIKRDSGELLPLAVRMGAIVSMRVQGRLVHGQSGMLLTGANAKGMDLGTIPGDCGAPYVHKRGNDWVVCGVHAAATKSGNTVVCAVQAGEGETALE
T3 sequence (Q83883 1101-1281): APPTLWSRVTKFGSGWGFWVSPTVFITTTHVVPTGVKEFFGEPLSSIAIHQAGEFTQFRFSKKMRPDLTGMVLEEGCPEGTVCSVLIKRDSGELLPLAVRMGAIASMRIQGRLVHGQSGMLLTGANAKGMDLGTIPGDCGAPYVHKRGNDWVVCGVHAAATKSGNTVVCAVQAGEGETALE

For the compound `CCOC(=O)/C=C/[C@H](C[C@@H]1CCNC1=O)NC(=O)[C@@H](CC(=O)[C@@H](NC(=O)c1cc(C)on1)C(C)C)Cc1ccc(F)cc1` [rupintrivir, Rupintrivir], the “effect of substitutions on the IC50” value in the assay on GII mutant proteases was “no measurable effect; also recorded: no significant differences”. For the same compound, the IC50 at GV WT protease came out at 1 ± 0.1 µM; in assay [1] (HEK293T cells, GI NS1/2-NS3 FRET substrate), 6.6 ± 1.2 µM; at GI WT protease it was 1.3 ± 0.4 µM. Besides, in assay [1] (vs GI WT protease), the “fold increase in IC50” value is recorded as 5.1 fold.
